Data reported in patent US4523033A, “Heart testing compound” (The United States of America as represented by the United …, priority 1983, dated 1985).
Read-outs that look alike come from different tables or passages of the source.

What was measured:
[1] = cited from earlier work
[2] = Cumulative excretion of radioactivity in urine and feces after injection; format: in vivo; settings: rat
Method: These studies were conducted over a five-day period, which represents a decay period of […] for 13.2-hr iodine-123. The cumulative excretion levels in urine and feces were 43.2±1.8% injected dose after two days and […] after five days. The radioactive content of the urine (20.8±2.1%) and feces 22.4±1.1%) were similar after two days, but after five days the cumulative fecal activity (41.4±4.3%) was greater than that for urine (30.5±4.0%).

[3] = Tissue distribution of radioactivity in rats after intravenous administration; format: in vivo; settings: rat; for tissue uptake at 5 min / tissue uptake at 0.5 h / tissue uptake at 1 h / tissue uptake at 2 h / tissue uptake at 6 h / tissue uptake at 24 h / tissue uptake at 120 h: iv
Method: In Table I, the tissue distribution of radioactivity in rats after intravenous administration of a bovine serium-albumin complex of the 15-(p-[^125 I]-iodophenyl)-6-Tellurapentadecanoic acid is summarized for various time periods from 5 minutes to 5 days.

[4] = after five days, % injected dose, 7200 min
[5] = after two days, % injected dose, 2880 min

## O=C(O)CCCCCCCCCCCCCCc1ccc([125I])cc1 [15-(p-[^125 I]iodophenyl) pentadecanoic acid]
[1]; background
  Washout from the myocardium (in words): relatively rapid

## O=C(O)CCCC[Te]CCCCCCCCCc1ccc([125I])cc1 [15-(p-[^125 I]iodophenyl)-6-tellurapentadecanoic acid]
[2]; [4]
  Cumulative excretion in urine and feces: 71.6±8.3%
  Cumulative fecal activity: 41.4±4.3%
  Cumulative urine activity: 30.5±4.0%
[2]; after two days, 2880 min
  Cumulative excretion in urine and feces: 43.2±1.8 % injected dose
[2]; [5]
  Radioactive content of the feces: 22.4±1.1%
  Radioactive content of the urine: 20.8±2.1%
[3]; after 6 hours
  Heart retention of the maximum uptake observed after 5 minutes: 80%
[3]; after 24 hours
  Heart retention of the maximal value: 55%
[3]; blood, 5 min, read-out: Distribution of radioactivity, Blood
  tissue uptake at 5 min: 0.26 %ID/g
[3]; blood, 30 min, read-out: Distribution of radioactivity, Blood
  tissue uptake at 0.5 h: 0.45 %ID/g
[3]; blood, 60 min, read-out: Distribution of radioactivity, Blood
  tissue uptake at 1 h: 0.34 %ID/g
[3]; blood, 2 h, read-out: Distribution of radioactivity, Blood
  tissue uptake at 2 h: 0.42 %ID/g
[3]; blood, 6 h, read-out: Distribution of radioactivity, Blood
  tissue uptake at 6 h: 0.31 %ID/g
[3]; blood, 1 d, read-out: Distribution of radioactivity, Blood
  tissue uptake at 24 h: 0.2 %ID/g
[3]; blood, 5 d, read-out: Distribution of radioactivity, Blood
  tissue uptake at 120 h: 0.03 %ID/g
[3]; heart, 5 min, read-out: Distribution of radioactivity, Heart
  tissue uptake at 5 min: 5.87 %ID/g
[3]; heart, 30 min, read-out: Distribution of radioactivity, Heart
  tissue uptake at 0.5 h: 5.43 %ID/g
[3]; heart, 60 min, read-out: Distribution of radioactivity, Heart
  tissue uptake at 1 h: 5.55 %ID/g
[3]; heart, 2 h, read-out: Distribution of radioactivity, Heart
  tissue uptake at 2 h: 5.85 %ID/g
[3]; heart, 6 h, read-out: Distribution of radioactivity, Heart
  tissue uptake at 6 h: 4.78 %ID/g
[3]; heart, 1 d, read-out: Distribution of radioactivity, Heart
  tissue uptake at 24 h: 3.25 %ID/g
[3]; heart, 5 d, read-out: Distribution of radioactivity, Heart
  tissue uptake at 120 h: 0.94 %ID/g
[3]; i.v.
  Blood clearance (in words): rapid blood clearance
  Blood levels (in words): low blood levels
  Deiodination (in words): minimal deiodination
  Myocardial uptake (in words): rapid and pronounced myocardial uptake
  Radioactivity accumulated in thyroid tissue (in words): Only marginal radioactivity accumulated in the thyroid tissue
  Retention of radioactivity in the heart (in words): Prolonged retention of radioactivity
[3]; i.v., 5 min
  Distribution of radioactivity, Blood: 2.00 % injected dose/organ
  Distribution of radioactivity, Heart: 2.98 % injected dose/organ
  Distribution of radioactivity, Kidneys: 1.25 % injected dose/organ
  Distribution of radioactivity, Liver: 50.94 % injected dose/organ
  Distribution of radioactivity, Lungs: 0.97 % injected dose/organ
  Distribution of radioactivity, Thyroid: 0.02 % injected dose/organ
[3]; i.v., 30 min
  Distribution of radioactivity, Blood: 3.41 % injected dose/organ
  Distribution of radioactivity, Heart: 2.61 % injected dose/organ
  Distribution of radioactivity, Kidneys: 1.52 % injected dose/organ
  Distribution of radioactivity, Liver: 39.28 % injected dose/organ
  Distribution of radioactivity, Lungs: 1.05 % injected dose/organ
  Distribution of radioactivity, Thyroid: 0.02 % injected dose/organ
[3]; i.v., 60 min
  Distribution of radioactivity, Blood: 2.66 % injected dose/organ
  Distribution of radioactivity, Heart: 2.87 % injected dose/organ
  Distribution of radioactivity, Kidneys: 1.73 % injected dose/organ
  Distribution of radioactivity, Liver: 39.03 % injected dose/organ
  Distribution of radioactivity, Lungs: 1.01 % injected dose/organ
  Distribution of radioactivity, Thyroid: 0.02 % injected dose/organ
[3]; i.v., 2 h
  Distribution of radioactivity, Blood: 3.01 % injected dose/organ
  Distribution of radioactivity, Heart: 2.87 % injected dose/organ
  Distribution of radioactivity, Kidneys: 1.53 % injected dose/organ
  Distribution of radioactivity, Liver: 44.03 % injected dose/organ
  Distribution of radioactivity, Lungs: 1.29 % injected dose/organ
  Distribution of radioactivity, Thyroid: 0.04 % injected dose/organ
[3]; i.v., 6 h
  Distribution of radioactivity, Blood: 2.26 % injected dose/organ
  Distribution of radioactivity, Heart: 2.32 % injected dose/organ
  Distribution of radioactivity, Kidneys: 1.25 % injected dose/organ
  Distribution of radioactivity, Liver: 46.39 % injected dose/organ
  Distribution of radioactivity, Lungs: 0.85 % injected dose/organ
  Distribution of radioactivity, Thyroid: 0.07 % injected dose/organ
[3]; i.v., 1 d
  Distribution of radioactivity, Blood: 1.50 % injected dose/organ
  Distribution of radioactivity, Heart: 1.60 % injected dose/organ
  Distribution of radioactivity, Kidneys: 0.81 % injected dose/organ
  Distribution of radioactivity, Liver: 34.28 % injected dose/organ
  Distribution of radioactivity, Lungs: 0.70 % injected dose/organ
  Distribution of radioactivity, Thyroid: 0.26 % injected dose/organ
[3]; i.v., 5 d
  Distribution of radioactivity, Blood: 0.23 % injected dose/organ
  Distribution of radioactivity, Heart: 0.45 % injected dose/organ
  Distribution of radioactivity, Kidneys: 0.23 % injected dose/organ
  Distribution of radioactivity, Liver: 6.46 % injected dose/organ
  Distribution of radioactivity, Lungs: 0.24 % injected dose/organ
  Distribution of radioactivity, Thyroid: 0.32 % injected dose/organ
[3]; kidneys, 5 min, read-out: Distribution of radioactivity, Kidneys
  tissue uptake at 5 min: 1.02 %ID/g
[3]; kidneys, 30 min, read-out: Distribution of radioactivity, Kidneys
  tissue uptake at 0.5 h: 1.25 %ID/g
[3]; kidneys, 60 min, read-out: Distribution of radioactivity, Kidneys
  tissue uptake at 1 h: 1.41 %ID/g
[3]; kidneys, 2 h, read-out: Distribution of radioactivity, Kidneys
  tissue uptake at 2 h: 1.37 %ID/g
[3]; kidneys, 6 h, read-out: Distribution of radioactivity, Kidneys
  tissue uptake at 6 h: 1.12 %ID/g
[3]; kidneys, 1 d, read-out: Distribution of radioactivity, Kidneys
  tissue uptake at 24 h: 0.7 %ID/g
[3]; kidneys, 5 d, read-out: Distribution of radioactivity, Kidneys
  tissue uptake at 120 h: 0.2 %ID/g
[3]; liver, 5 min, read-out: Distribution of radioactivity, Liver
  tissue uptake at 5 min: 9.57 %ID/g
[3]; liver, 30 min, read-out: Distribution of radioactivity, Liver
  tissue uptake at 0.5 h: 7.78 %ID/g
[3]; liver, 60 min, read-out: Distribution of radioactivity, Liver
  tissue uptake at 1 h: 7.69 %ID/g
[3]; liver, 2 h, read-out: Distribution of radioactivity, Liver
  tissue uptake at 2 h: 8.38 %ID/g
[3]; liver, 6 h, read-out: Distribution of radioactivity, Liver
  tissue uptake at 6 h: 8.37 %ID/g
[3]; liver, 1 d, read-out: Distribution of radioactivity, Liver
  tissue uptake at 24 h: 6.24 %ID/g
[3]; liver, 5 d, read-out: Distribution of radioactivity, Liver
  tissue uptake at 120 h: 1.28 %ID/g
[3]; lungs, 5 min, read-out: Distribution of radioactivity, Lungs
  tissue uptake at 5 min: 1.14 %ID/g
[3]; lungs, 30 min, read-out: Distribution of radioactivity, Lungs
  tissue uptake at 0.5 h: 1.25 %ID/g
[3]; lungs, 60 min, read-out: Distribution of radioactivity, Lungs
  tissue uptake at 1 h: 1.48 %ID/g
[3]; lungs, 2 h, read-out: Distribution of radioactivity, Lungs
  tissue uptake at 2 h: 1.57 %ID/g
[3]; lungs, 6 h, read-out: Distribution of radioactivity, Lungs
  tissue uptake at 6 h: 1.1 %ID/g
[3]; lungs, 1 d, read-out: Distribution of radioactivity, Lungs
  tissue uptake at 24 h: 0.89 %ID/g
[3]; lungs, 5 d, read-out: Distribution of radioactivity, Lungs
  tissue uptake at 120 h: 0.33 %ID/g
[3]; thyroid, 5 min, read-out: Distribution of radioactivity, Thyroid
  tissue uptake at 5 min: 1.52 %ID/g
[3]; thyroid, 30 min, read-out: Distribution of radioactivity, Thyroid
  tissue uptake at 0.5 h: 1.51 %ID/g
[3]; thyroid, 60 min, read-out: Distribution of radioactivity, Thyroid
  tissue uptake at 1 h: 1.48 %ID/g
[3]; thyroid, 2 h, read-out: Distribution of radioactivity, Thyroid
  tissue uptake at 2 h: 3.51 %ID/g
[3]; thyroid, 6 h, read-out: Distribution of radioactivity, Thyroid
  tissue uptake at 6 h: 5.89 %ID/g
[3]; thyroid, 1 d, read-out: Distribution of radioactivity, Thyroid
  tissue uptake at 24 h: 22.8 %ID/g
[3]; thyroid, 5 d, read-out: Distribution of radioactivity, Thyroid
  tissue uptake at 120 h: 30.2 %ID/g
[3]; thyroid, after 5 minutes, read-out: Radioactivity accumulated in the thyroid tissue
  tissue uptake at 5 min: 1.52 %ID/g
[3]; thyroid, after 6 hours, read-out: Radioactivity accumulated in the thyroid tissue
  tissue uptake at 6 h: 5.84 %ID/g

## O=C(O)CCCCCCCCCCCCCCc1ccc(I)cc1 [15-(p-iodophenyl) pentadecanoic acid]
[1]; Machulla et al 1980
  Concentration of radioactive iodide in the blood (in words): avoids the high concentration of radioactive iodide in the blood

## CCCCCCCC[123Te]CCCCCCCC(=O)O [9-[^123m Te] telluraheptadecanoic acid]
[1]; Knapp et al 1981
  Uptake and retention in the myocardium (in words): rapid uptake and prolonged retention in the myocardium
